Source: patent US6737383B1, “Herbicidal oxadiazolidines” (priority 1999, dated 2004)

What was measured:
[1] = system: blackgrass; assay: Test B pre/postemergence blackgrass; format: in vivo, Alopecurus myosuroides
Outline: (§1)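 Herbicidal effect was estimated by eye on a ten-point control scale after plants spent twelve to sixteen days in a greenhouse following soil or foliar treatment. Foliar sprays targeted plants at one to four leaves; all doses were formulated in a non-phytotoxic solvent with surfactant.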

[2] = system: surinam grass; assay: Test B pre/postemergence surinam grass; format: in vivo, Brachiaria decumbens
Outline: as §1

[3] = system: cocklebur; assay: Test B pre/postemergence cocklebur; format: in vivo, Xanthium strumarium
Outline: as §1

[4] = system: corn; assay: Test B pre/postemergence corn; format: in vivo, Zea mays
Outline: as §1

[5] = system: crabgrass; assay: Test B pre/postemergence crabgrass; format: in vivo, Digitaria sanguinalis
Outline: as §1

[6] = system: morningglory; assay: Test B pre/postemergence morningglory; format: in vivo, Ipomoea hederacea
Outline: as §1

[7] = system: pigweed; assay: Test B pre/postemergence pigweed; format: in vivo, Amaranthus retroflexus
Outline: as §1

[8] = system: rape; assay: Test B pre/postemergence rape; format: in vivo, Brassica napus
Outline: as §1

[9] = system: sugar beet; assay: Test B pre/postemergence sugar beet; format: in vivo, Beta vulgaris
Outline: as §1

[10] = system: velvetleaf; assay: Test B pre/postemergence velvetleaf; format: in vivo, Abutilon theophrasti
Outline: as §1

[11] = system: wheat; assay: Test B pre/postemergence wheat; format: in vivo, Triticum aestivum
Outline: as §1

[12] = system: wild oat; assay: Test B pre/postemergence wild oat; format: in vivo, Avena fatua
Outline: as §1

[13] = system: purple nutsedge; assay: Test B pre/postemergence purple nutsedge; format: in vivo, Cyperus rotundus
Outline: as §1

[14] = system: smallflower flatsedge; assay: Test B flood test smallflower flatsedge; format: in vivo, Cyperus difformis; details: for S. Flatsedge plant response rating: scale of 0 to 10 where 0 is no effect and 10 is complete control
Outline: (§2)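 Plants were grown to the 2-leaf stage before treatment with test chemical, then held in a greenhouse for twelve to sixteen days. Injury was visually rated against untreated controls on a 0–10 scale, where 0 is no effect and 10 is complete control.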

[15] = system: duck salad; assay: Test B flood test duck salad; format: in vivo, Heteranthera limosa; details: for Plant response rating, Ducksalad: scale 0 to 10, 0 is no effect, 10 is complete control; for Ducksalad plant response rating: scale of 0 to 10 where 0 is no effect and 10 is complete control
Outline: as §2

[16] = Postemergence, Rate 125 g/ha, scale 0 to 10, 0 is no effect, 10 is complete control
[17] = Postemergence, Rate 250 g/ha, scale 0 to 10, 0 is no effect, 10 is complete control
[18] = Postemergence, Rate 500 g/ha, scale of 0 to 10 where 0 is no effect and 10 is complete control
[19] = Preemergence, Rate 62 g/ha, scale 0 to 10 (0 no effect, 10 complete control)
[20] = Preemergence, Rate 125 g/ha, scale of 0 to 10 where 0 is no effect and 10 is complete control
[21] = Preemergence, Rate 250 g/ha, scale of 0 to 10 where 0 is no effect and 10 is complete control
[22] = Preemergence, Rate 500 g/ha, scale 0 to 10, 0 is no effect, 10 is complete control
[23] = Rate 62 g/ha, Postemergence, scale of 0 to 10 where 0 is no effect and 10 is complete control
[24] = Preemergence, Rate 250 g/ha, scale 0 to 10, 0 is no effect, 10 is complete control
[25] = Postemergence section (flood test species), Rate 500 g/ha
[26] = Rate 62 g/ha, Postemergence (flood test species)

## CC(C)N(C(=O)n1oc(=O)n(CCC(F)(F)F)c1=O)c1ccc(F)cc1 [Compound 397]
[1]; [16]
  Plant response rating, Blackgrass: 8
[1]; [17]
  Plant response rating, Blackgrass: 9
[1]; [18]
  Blackgrass plant response rating: 9
[1]; [19]
  Plant response rating, Blackgrass: 7
[1]; [20]
  Plant response rating, Blackgrass: 9
[1]; [21]
  Blackgrass plant response rating: 10
[1]; [22]
  Blackgrass plant response rating: 10
[1]; [23]
  Blackgrass plant response rating: 6
[2]; [16]
  Plant response rating, B. signalgrass: 0
[2]; [17]
  Plant response rating, B. signalgrass: 2
[2]; [18]
  B. signalgrass plant response rating: 8
[2]; [19]
  Plant response rating, B. signalgrass: 3
[2]; [20]
  Plant response rating, B. signalgrass: 6
[2]; [21]
  B. signalgrass plant response rating: 9
[2]; Preemergence, Rate 500 g/ha, scale of 0 to 10 where 0 is no effect and 10 is complete control
  B. signalgrass plant response rating: 10
[2]; [23]
  B. signalgrass plant response rating: 0
[3]; [16]
  Plant response rating, Cocklebur: 0
[3]; [17]
  Plant response rating, Cocklebur: 0
[3]; [18]
  Cocklebur plant response rating: 0
[3]; [19]
  Plant response rating, Cocklebur: 0
[3]; [20]
  Plant response rating, Cocklebur: 0
[3]; [24]
  Cocklebur plant response rating: 0
[3]; [22]
  Cocklebur plant response rating: 0
[3]; [23]
  Cocklebur plant response rating: 0
[4]; [16]
  Plant response rating, Corn: 0
[4]; [17]
  Plant response rating, Corn: 0
[4]; [18]
  Corn plant response rating: 0
[4]; [19]
  Plant response rating, Corn: 0
[4]; [20]
  Plant response rating, Corn: 0
[4]; [24]
  Corn plant response rating: 3
[4]; [22]
  Corn plant response rating: 8
[4]; [23]
  Corn plant response rating: 0
[5]; [16]
  Plant response rating, Crabgrass: 6
[5]; [17]
  Plant response rating, Crabgrass: 9
[5]; [18]
  Crabgrass plant response rating: 9
[5]; [19]
  Plant response rating, Crabgrass: 10
[5]; [20]
  Plant response rating, Crabgrass: 10
[5]; [24]
  Crabgrass plant response rating: 10
[5]; [22]
  Crabgrass plant response rating: 10
[5]; [23]
  Crabgrass plant response rating: 2
[6]; [17]
  Plant response rating, Morningglory: 5
[6]; [18]
  Morningglory plant response rating: 6
[6]; [19]
  Plant response rating, Morningglory: 0
[6]; [20]
  Plant response rating, Morningglory: 0
[6]; [24]
  Morningglory plant response rating: 0
[6]; [22]
  Morningglory plant response rating: 4
[6]; [23]
  Morningglory plant response rating: 0
[7]; [17]
  Plant response rating, Redroot pigweed: 4
[7]; [18]
  Redroot pigweed plant response rating: 6
[7]; [19]
  Plant response rating, Redroot pigweed: 8
[7]; [20]
  Plant response rating, Redroot pigweed: 8
[7]; [24]
  Redroot pigweed plant response rating: 10
[7]; [22]
  Redroot pigweed plant response rating: 10
[7]; [23]
  Redroot pigweed plant response rating: 0
[8]; [17]
  Plant response rating, Rape: 0
[8]; [18]
  Rape plant response rating: 2
[8]; [19]
  Plant response rating, Rape: 3
[8]; [20]
  Plant response rating, Rape: 9
[8]; [24]
  Rape plant response rating: 10
[8]; [22]
  Rape plant response rating: 10
[8]; [23]
  Rape plant response rating: 0
[9]; [17]
  Plant response rating, Sugarbeets: 0
[9]; [18]
  Sugarbeets plant response rating: 0
[9]; [19]
  Plant response rating, Sugarbeets: 0
[9]; [20]
  Plant response rating, Sugarbeets: 4
[9]; [24]
  Sugarbeets plant response rating: 7
[9]; [22]
  Sugarbeets plant response rating: 9
[9]; [23]
  Sugarbeets plant response rating: 0
[10]; [17]
  Plant response rating, Velvetleaf: 0
[10]; [18]
  Velvetleaf plant response rating: 0
[10]; [19]
  Plant response rating, Velvetleaf: 0
[10]; [20]
  Plant response rating, Velvetleaf: 2
[10]; [24]
  Velvetleaf plant response rating: 6
[10]; [22]
  Velvetleaf plant response rating: 6
[10]; [23]
  Velvetleaf plant response rating: 0
[11]; [18]
  Wheat plant response rating: 4
[11]; [19]
  Plant response rating, Wheat: 0
[11]; [20]
  Plant response rating, Wheat: 0
[11]; [24]
  Wheat plant response rating: 2
[11]; [22]
  Wheat plant response rating: 3
[11]; [23]
  Wheat plant response rating: 0
[12]; [18]
  Wild oats plant response rating: 5
[12]; [19]
  Plant response rating, Wild oats: 2
[12]; [20]
  Plant response rating, Wild oats: 5
[12]; [24]
  Wild oats plant response rating: 7
[12]; [22]
  Wild oats plant response rating: 10
[12]; [23]
  Wild oats plant response rating: 0
[13]; [17]
  Plant response rating, Nutsedge: 0
[13]; [18]
  Nutsedge plant response rating: 0
[13]; [19]
  Plant response rating, Nutsedge: 0
[13]; [20]
  Plant response rating, Nutsedge: 0
[13]; [24]
  Nutsedge plant response rating: 0
[13]; [22]
  Nutsedge plant response rating: 0
[13]; [23]
  Nutsedge plant response rating: 0
[14]; [25]
  S. Flatsedge plant response rating: 0
[14]; [26]
  S. Flatsedge plant response rating: 0
[14]; flood test species, listed under Postemergence, Rate 250 g/ha, scale 0 to 10, 0 is no effect, 10 is complete control
  Plant response rating, S. Flatsedge: 0
[15]; Postemergence (flood test), Rate 125 g/ha
  Plant response rating, Ducksalad: 0
[15]; [25]
  Ducksalad plant response rating: 0
[15]; [26]
  Ducksalad plant response rating: 0
[15]; flood test species, listed under Postemergence, Rate 250 g/ha
  Plant response rating, Ducksalad: 0
